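Cultured in 96-well plates, cells were exposed to test compound for 48 hours across five concentrations. Here, GI50 denotes the concentration required for 50% inhibition of growth. TGI is the concentration that stops growth completely.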
Assays:
Test in all cases: inhibition of tumour cell growth, NCI panel, 48 h
[1] = tested on: BT-549 breast
[2] = tested on: SF-295 CNS
[3] = tested on: MDA-N
[4] = tested on: CCRF-CEM leukemia
[5] = tested on: UACC-257 melanoma
[6] = tested on: SK-OV-3 ovarian
[7] = tested on: M14 melanoma
[8] = tested on: NCI-H226 lung
[9] = tested on: SN12C renal
[10] = tested on: A549 NSCLC

| Compound | TGI [1] [µM] | TGI [2] [µM] | TGI [3] [µM] | TGI [4] [µM] | TGI [5] [µM] | TGI [6] [µM] | TGI [7] [µM] | TGI [8] [µM] | TGI [9] [µM] | TGI [10] [µM] | GI50 [7] [µM] |
| --- | --- | --- | --- | --- | --- | --- | --- | --- | --- | --- | --- |
| Oc1ccccc1C=Nc1ccc(-c2nc3ccccc3[nH]2)cc1 | 54.4 | > 100 | > 100 | 71.5 | > 100 | > 100 | > 100 | > 100 | > 100 | > 100 |  |
| CCCCSC1=N/C(=C\c2ccc(N(C)C)cc2)C(NN)=N1 | > 100 | > 100 | > 100 | > 100 | > 100 | > 100 | > 100 |  | > 100 | > 100 |  |
| CC1(C)CC23CC(C)(C)c4cccc(c42)OCc2ccc4ccc5ccc(nc5c4n2)COc2cccc1c23 | > 50 | > 50 | > 50 |  | > 50 | > 50 | > 50 | > 50 | > 50 | > 50 |  |
| C=C1C(=O)C[C@@]23CCC[C@@]12CC(OCOC)C3 (stereo partly specified) |  | 17.3 |  | 6.81 | 7.82 | 17.8 |  | 4.66 | 4.53 | 28.4 |  |
| COc1ccc(/C=C2\CCC(C)/C(=C\c3ccc(OC)c(OC)c3)C2=O)cc1OC (stereo unspecified) | 20.3 | 23 | > 100 | 7.6 | 21.5 | 42.3 | 31.2 | 38.8 | 36.5 |  |  |
| COc1ccc(C2Oc3cc(OC)c(O)c(C)c3[C@H]2C)cc1 (stereo partly specified) |  | > 100 |  | > 100 | > 100 | > 100 | > 100 | > 100 |  | > 100 |  |
| CCCCOC(=O)NC(Nc1cccc(C(F)(F)F)c1)(C(F)(F)F)C(F)(F)F |  | > 100 | > 100 | > 100 | > 100 |  | > 100 | > 100 | > 100 | > 100 |  |
| CC(C)CCC[C@@H](C)C1CCC2[C@@H]3CC=C4C[C@@H](C(=O)NCC[N+](C)(C)CCCS(=O)(=O)[O-])CC[C@]4(C)C3CC[C@@]21C (stereo partly specified) |  | 35 |  | 31.5 | 34.8 | 30.9 | 31.6 | 37.9 | 32.6 | 31.7 |  |
| Cc1ccc2c(c1)C(=O)N1CCC[C@H]1C=N2 | 84.7 | > 100 | 37.6 | 22.6 | > 74.3 | > 100 | 47.8 |  | > 100 | > 100 |  |
| O=C(NNC(c1ccccc1)C(F)(F)F)c1ccncc1 (stereo unspecified) | > 100 | > 100 |  | > 100 | > 100 |  | > 100 | > 100 | > 100 | > 100 |  |
| CS(=O)(=O)c1c(N)c2nc(Cl)cn2c2nc3ccccc3nc12 |  | > 100 |  | > 100 | > 100 | > 100 | > 100 | > 100 | > 100 | > 100 |  |
| CCN(CC)C(=S)SS(=O)(=O)c1ccc(Cl)cc1 | > 100 | > 100 | > 100 |  | 58.8 | > 100 | 31 | > 100 | 48.2 | > 100 |  |
| CC1=CCC2C3(C)CCC2(C(C)C)C1C3 (stereo unspecified) (tested in a mixture with another compound) | 45.8 | 40.3 | > 100 | 56.9 | 99.7 | > 100 | 45.7 |  | 36.2 | 39 |  |
| C=C1C(=O)OC2/C=C(/C)C3CC(O)C(C)(CC(OC(=O)/C(C)=C/C)C12)O3 (stereo unspecified) |  | > 54 |  | 8.1 | 17.6 | > 65.2 | 9.08 | 35.3 | 11.3 | 23.6 |  |
| CN1CCCCC(C#N)(c2ccccc2)CC1 (stereo unspecified) |  | > 100 | > 100 | > 100 | > 100 | > 100 | > 100 |  |  | > 100 |  |
| CCOC(=O)c1nc2ccccc2nc1Nc1ccc(OC)c(OC)c1 | > 100 | > 100 | > 100 | > 100 |  | > 100 | > 100 |  | > 100 | > 100 |  |
| C/C=C1/CN2CCC3(O)c4ccccc4N4C=C(C(=O)OC)C1CC2C43O (stereo unspecified) | > 100 | > 100 | > 100 | > 100 | > 100 | > 100 | > 100 |  | > 100 | > 100 |  |
| C/C1=C/C(C)CC(C)OC(=O)C(C)NC(=O)C(Cc2ccc(O)c(I)c2)N(C)C(=O)C(C)NC(=O)C(C)C1 (stereo unspecified) | 0.737 | 1.25 | 30.7 |  | 8.36 |  | 48.8 |  | > 89.2 | > 100 |  |
| [N-]=[N+]=Nc1c(C=O)c(=O)n(-c2ccccc2)c2ccccc12 | > 100 | > 100 | > 100 | 18.9 | 50.1 | > 100 | 34.1 |  | > 100 | > 100 |  |
| c1ccc(C2=NOC3(c4ccccc4)SC4CCCCC4CN23)cc1 (stereo unspecified) |  | > 100 |  | 31.6 | > 100 | > 100 | 49.3 | > 100 | > 100 | 58.5 |  |
| CC(C)(C)NC(=O)NC12CC3CC(CC(F)(C3)C1)C2 |  |  |  | > 100 | > 100 | > 100 | > 100 |  |  | > 100 |  |
| O=c1[nH]c2cc([N+](=O)[O-])ccc2nc1/C(=N/Nc1ccccc1)C(O)c1ccc(C(O)/C(=N\Nc2ccccc2)c2cnc3cc([N+](=O)[O-])ccc3n2)cc1 (stereo unspecified) |  | > 100 |  | > 100 | > 100 | > 100 | > 100 |  | > 100 | > 100 |  |
| O=C(N/N=C/c1ccc([N+](=O)[O-])o1)c1ccc(C(=O)N/N=C/c2ccc([N+](=O)[O-])o2)cc1 | > 100 | > 100 | 50.2 | 42.4 |  | > 100 | > 100 | > 100 | > 100 | > 100 |  |

| Compound | TGI [1] [µM] | TGI [2] [µM] | TGI [3] [µM] | TGI [4] [µM] | TGI [5] [µM] | TGI [6] [µM] | TGI [7] [µM] | TGI [8] [µM] | TGI [9] [µM] | TGI [10] [µM] | GI50 [7] [µM] |
| --- | --- | --- | --- | --- | --- | --- | --- | --- | --- | --- | --- |
| Cc1cc(C)c2c(c1)CC1(Cc3c(C)ccc(C)c3C1=O)C2=O (stereo unspecified) | > 100 | > 100 | > 100 | > 100 | > 100 |  | > 100 | > 100 | > 100 | > 100 |  |
| O=C(Cc1csc(N=Nc2c(O)[nH]c3ccccc23)n1)Nc1ccccc1 | > 100 | > 100 |  |  | 87.7 | > 100 | > 100 |  | > 100 | > 100 |  |
| COC(C(=O)C(O)C(C)O)C1CC2C=C3C=C(OC4CC(OC5CC(O)C(OC)C(C)O5)C(OC(C)=O)C(C)O4)C(C)C(=O)C3=C(O)C2=C(O)C1OC1CC(OC2CC(OC3CC(C)(O)C(OC(=O)C(C)C)C(C)O3)C(O)C(C)O2)C(O)C(C)O1 (stereo unspecified) |  |  | < 0.01 |  | < 0.01 | > 100 | < 0.01 | < 0.01 | < 0.01 |  |  |
| CCN(CC)CCCNc1ncc(C)c2[nH]c3ccncc3c12 |  | 29.7 |  | > 71.5 | 18.5 | 15.9 |  | 20.3 | 30.5 | 22.7 |  |
| NC(=O)NC(=O)c1cccc(CNc2ccc(C(=O)N[C@@H](CCC(=O)O)C(=O)O)cc2)n1 | > 100 | > 100 | > 100 |  | > 100 | > 100 | > 100 | > 100 | > 100 | > 100 |  |
| Cc1ccc(S(=O)(=O)N2C[C@](O)(c3ccccc3)[C@H]2C)cc1 |  | > 100 | > 100 | > 100 | > 100 | > 100 | > 100 | > 100 | > 100 | > 100 |  |
| O=C(O)Cc1ccc(Oc2nc3ccccc3nc2C(=O)O)cc1 | > 100 | > 100 |  | > 100 | > 100 | > 100 | > 100 | > 100 | > 100 | > 100 |  |
| COc1cc(NC(C)=O)ccc1C(=O)NN1C(=O)C(Cl)C1c1ccco1 (stereo unspecified) | > 100 |  | > 100 | > 100 |  |  | > 100 | > 100 | > 100 | > 100 |  |
| Cc1c2c(n(CCc3ccccc3)c1C)N(C)N=C(C#N)S2(=O)=O | > 100 | > 100 | > 100 |  | > 100 | > 100 | > 100 | > 100 | > 100 | > 100 |  |
| Cc1ccc2c(sc(-c3ccc4c(c3)sc(-c3ccc5c(c3)sc(-c3ccc(N(C)C)cc3)[n+]5C)[n+]4C)[n+]2C)c1S(=O)(=O)O (tested in a mixture with another compound) | > 100 | > 100 | > 100 |  | > 100 | > 100 | > 100 |  | > 100 | > 100 |  |
| c1ccc(P(CCP(c2ccccn2)c2ccccn2)c2ccccc2)cc1 | > 100 | > 56.6 | > 100 |  | > 100 | > 100 | > 100 | > 100 | > 100 | > 100 |  |
| O=C(O)CS |  | > 100 |  | > 100 | > 100 | > 100 |  | > 100 | > 100 | > 100 |  |
| COC(=O)c1cccc(N[C@@H]2c3cc4c(cc3C(c3cc(OC)c(O)c(OC)c3)[C@H]3C(=O)OCC32)OCO4)c1 (stereo partly specified) |  | 5.96 |  | 5.23 | 7.82 | 23.6 |  | 3.6 |  | 3.25 |  |
| CN(C)CC1COC2Cc3ccccc3C1O2 (stereo unspecified) |  | > 100 | > 100 | > 100 | > 100 | > 100 | > 100 | > 100 | > 100 | > 100 |  |
| CN(CCO)c1nc(N)cc(=O)[nH]1 |  | > 100 |  | > 100 | > 100 | > 100 | > 100 | > 100 | > 100 | > 100 |  |
| Cc1oc(N)c(S(=O)(=O)c2ccc(Cl)cc2)c1C | 60.5 | > 100 |  | > 100 | > 100 | > 100 | > 100 | > 100 |  | > 100 |  |
| C=C(C)C1CC/C(C)=C/CC[C@]2(C)O[C@H]2CC/C(COC(C)=O)=C\[C@@H]1O (stereo partly specified) | > 50 | > 50 |  | > 50 | > 50 | > 50 | > 50 | > 50 | > 50 | > 50 | 8.28 |
| Cc1cc(S(=O)(=O)/N=C(\[N-]S(=O)(=O)c2ccc(Cl)cc2)[n+]2ccc(N(C)C)cc2)c(S)cc1Cl |  | > 100 | > 100 | > 100 | > 100 | > 100 | > 100 | > 100 |  |  |  |
| COc1cc(/C=C2/SC(c3ccccc3)N(c3ccccc3)C2=O)cc(OC)c1OC (stereo unspecified) | > 100 | > 100 |  | 42.2 | > 100 | > 100 | > 100 | > 100 | > 100 | > 100 |  |
| C/C=C\C(CC(=O)NCCC1CN(S(=O)(=O)C(F)(F)F)c2ccccc21)CC(=O)OC (stereo unspecified) | 67.1 | > 100 | > 100 | > 100 | > 100 | > 100 | > 100 |  |  | > 100 |  |
| S=P1(N2CCCCC2)Oc2ccc3ccccc3c2-c2c(ccc3ccccc23)O1 |  | > 100 |  | > 31.6 | > 100 | > 100 |  | > 100 | > 100 | > 100 |  |
| CC1(C)CC(=O)C2=C(C1)NC1=C(C(=O)CC(C)(C)C1)C2c1ccc([N+](=O)[O-])cc1 | > 100 | > 100 | > 100 |  | > 100 | > 100 | > 100 | > 100 | > 100 | > 100 |  |
| COc1cc(C=C2C(C)=NN(c3cccc(Cl)c3)C23C(Cl)C(=O)N3c2nc3ccccc3s2)ccc1O (stereo unspecified) |  | > 100 | 74.7 | 38.8 | 73.1 | 59.5 | 41.9 | 63.6 |  |  |  |

Source: PubChem BioAssay (NCI)
